In a melting point compilation (Tetko et al.; mined from patent text by program, amines drawn as free bases though some values may be those of a salt):

SMILES	melting point [°C]
COc1ncc(F)c2nc(S(=O)(=O)Nc3c(F)cc(Cl)cc3F)nn12	203 to 204
CCOC(=O)c1cc2cc(N(CC)C(C)=O)ccc2[nH]1	149 to 150
C=Cc1cccc2[nH]cc(S(=O)(=O)c3ccccc3)c12	125 to 128
CNc1cc(Oc2cc(C(F)(F)F)nn2C)nc(Oc2cc(C(F)(F)F)nn2C)c1	118
Cn1c(COc2ccc(C#N)cc2)nc2nc(C=O)ccc21	231 to 234
CCOC(=O)c1nnc2ccc([N+](=O)[O-])cc2c1O	294 to 296
Nc1c(Cl)ncnc1NCCc1ccccc1	156 to 157
COc1c(O)ccc(C(=O)c2ccccc2)c1[N+](=O)[O-]	169 to 171
COc1cc(CCNC=O)cc2c1OCO2	108 to 110
Nc1ccc2sc(Cl)nc2c1	146 to 149
COc1cc2c(c(OC)c1OC)CC(CCCCCCC1Cc3cc(OC)c(OC)c(OC)c3C1)C2 (stereo not given)	69 to 70
Cc1ccc(S(=O)(=O)ON=C(C#N)c2ccccc2)cc1	131 to 132
O=C1CCCc2ccc(OCc3ccc(Cl)c(Cl)c3)cc21	122 to 123
COCc1ccc(-c2ncccc2C#N)cc1	74
O=C1C(CCO)Oc2ccccc2N1Cc1cccc(Cl)c1 (stereo not given)	63 to 67
N=C(Nc1ccc(CCCC(=O)Nc2ccccc2)cc1)c1cccs1	229 to 231

SMILES	melting point [°C]
C#CCOC(=O)Nc1ccc(C2=NNC(=O)CC2C)cc1 (stereo not given)	204 to 205
CCOC(=O)NNC(=O)CC(F)=C(F)F	110
CN1C(=O)C(C)(C)C(=O)Nc2cc(C#N)ccc21	289 to 294
CC(=O)NC1C(O[Si](C)(C)C(C)(C)C)C=C(C(=O)O)OC1C(OCC(=O)O)C1COC(C)(C)O1 (stereo not given)	130
CC(C)Sc1c(C(=O)O)oc(Br)c1Br	130 to 131
O=C(O)C1SC(C23CC4CC(CC(C4)C2)C3)=NN1C(=O)CCS (stereo not given)	183 to 184
O=C(O)c1cc(C(F)(F)F)nn1-c1ncccc1Cl	175 to 176
C=CCCC(=O)N1CCc2nnc(NN)cc2C1	132 to 134
Nc1nc(N)c(-c2cc(Cl)ccc2Cl)c(C(F)(F)F)n1	215 to 217
COc1ccc(Oc2c(C)cc([N+](=O)[O-])cc2C)cc1	117 to 120
CC(C)Oc1ccc2c(O)c(C(=O)NCCO)nc(Cl)c2c1	102 to 104
O=[N+]([O-])c1c(F)cc(Br)c(OCCCl)c1Br	56
NNC(=O)CC1(O)c2ccccc2C=Cc2ccccc21	192 to 194
CCn1c(OC)n[nH]c1=O	130
O=C(CCC(=O)N1CCC[C@H]1C(=O)O)c1ccc(Br)cc1	138 to 139

Further lines, results first:

melting point [°C]	SMILES
> 270	CC(C)(C)[Si](C)(C)Oc1ccc2cc3c(cc2c1)C(=O)c1cc2cc(O[Si](C)(C)C(C)(C)C)ccc2cc1C3=O
170 to 172	C=CCc1cc(-c2ccc(F)cc2)cc(C(=O)O)c1O
146 to 147	COc1ccc2c(c1)c(Cc1cc(=O)n(C)[nH]1)c(C)n2C(=O)c1ccc(Cl)cc1
117 to 118	Cc1oc(-c2ccccc2)nc1COc1ccc(COc2ncccc2C#N)cn1
244 to 245	O=C(O)c1cccc(C(=O)Nc2ccc(-n3nc(C(F)(F)F)cc3C(F)(F)F)cc2)c1
113	C=C(C)C(=O)OCCOC(=O)c1ccc2c(c1)C(=O)N(OS(=O)(=O)c1ccc(C)cc1)C2=O
230 to 233	Cc1ccc(C(=O)NC(NC(=O)Nc2ccccc2)C(Cl)(Cl)Cl)cc1 (stereo not given)
198 to 204	Cc1cc(OC(C)C)ccc1N1CCCn2c1nc1c(Cl)ccc(C(OC(F)F)C(F)(F)F)c12 (stereo not given)
271 to 272	Cc1c(C)c2c(c(C)c1NC(=O)c1ccc(F)cc1)C(c1ccc(C(C)C)cc1)C1(CCN(C)CC1)O2 (stereo not given)
80 to 85	CC(C)CCOc1ccc(C(=O)C(O)O)cc1
130 to 132	Cc1ccc(OCCC(C(=O)O)c2ccccc2)c2ccccc12 (stereo not given)
108 to 110	CC1(c2cccc(F)c2C(=O)NCCCl)CCC1
304	O=C(Nc1ncco1)c1cnc2c(C(F)(F)F)cccc2c1O
178 to 179	COC(=O)c1ccc(CC2=CCc3ccc(NC(=O)CC4CCCC4)cc32)c(OC)c1
112 to 114	N#Cc1ccccc1N1CCN(CCC=C2c3ccccc3CCc3ccccc32)CC1
200 to 201	CN1CCN(C2=Nc3ccccc3Nc3cscc32)CC1
223 to 225	Cc1ccc(NC(=O)c2ccc3c(c2)C(=O)N(c2c(C)cccc2C)C3=O)cc1C
184 to 186	Cc1noc(NS(=O)(=O)c2ccsc2C(=O)NS(=O)(=O)c2cccc3c(N(C)C)cccc23)c1Br
138 to 140	CCOP(=O)(CNC(=O)C[C@H]1O[C@H](c2cccc(OC)c2OC)c2cc(Cl)ccc2N(CC(C)(C)CO)C1=O)OCC
210	CCOC(=O)C1=C(C)Nc2nc(N3CCOCC3)nc(N3CCOCC3)c2C1c1cccc(C#N)c1 (stereo not given)

melting point [°C]	SMILES
244	COc1cc(OCc2ccccc2)ccc1-c1nc2ncccc2[nH]1
139 to 141	N#CNC(=NCCN1CCC(C(=O)c2ccc(F)cc2)CC1)N1CCCCC1
181 to 182	Cc1cc(Cn2nnc(C(N)=O)c2N)ccc1C(=O)c1ccccc1
202 to 204	COC(=O)c1ccc(-c2c(CC(=O)Nc3ccc(F)cc3C(F)(F)F)c(=O)oc3cc(Cl)c(C)cc23)cc1
128 to 129	O=C(c1ccc(Br)cc1)N1CCN(c2ccncc2)CC1
220 to 223	CCS[C@@H]1c2ccn3c(C)c(C)nc3c2N[C@H](c2ccccc2)[C@H]1O
148 to 150	O=C(CCCN1CCN(c2cc3ccccc3cn2)CC1)c1ccc(F)cc1
116 to 118	Cc1cc(Oc2ncc(C(F)(F)F)cc2Cl)nn1C(=O)Nc1ccccc1
124 to 126	COc1cccc(COc2ccc(S(=O)(=O)c3ccc(C)nc3Nc3c(C)cc(C)cc3C)cc2)c1
158 to 159	CC(C)(C)c1ccc2c(c1)C(CO)c1cc(C(C)(C)C)ccc1S2
160 to 161	FC(F)(F)c1ccc(/C=C/c2nc(COc3ccc(CCCCn4ccnn4)cc3)co2)cc1
188	O=C1c2cc(OCc3ccc4cc(F)ccc4n3)ccc2OCC1Oc1cccnc1 (stereo not given)
125 to 128	COc1ccc(C2CCN(c3c(C)c(C)c4c(c3C)C(O)(c3ccsc3)C(C)(C)O4)CC2)cc1OC (stereo not given)
170 to 173	COC(=O)c1ccc(-c2ccc3cc(OCc4ccccc4)c(C45CC6CC(CC(C6)C4)C5)cc3c2)cc1
283 to 284	O=C(O)c1ccc(C(=O)Nc2cc3c4c(c2)CCCC4CCC3)cc1
182 to 186	O=C(c1ccc(-c2ccccc2)cc1)c1cccc(C(=O)c2ccc(-c3ccccc3)cc2)c1
234 to 236	N#CCc1ccnc2c(NC(=O)c3c(Cl)cccc3Cl)cccc12
275	Cc1cnc2c(c1)C(=O)c1cc(-c3ccccc3)c(=O)[nH]c1C2=O
179 to 181	CSc1ccc([N+](=O)[O-])c(C(=O)NCC2CCN(C(c3ccccc3)c3ccccc3)CC2)c1
